Our source for the Kd, inhibition and IC50 values is US10508120B2, “TYK2 inhibitors and uses thereof” (Nimbus Lakshmi, Inc., priority 2017, dated 2019).

Read-outs that look alike come from different tables or passages of the source. Bounds are passed on as bounds.

The target in test [1] is human TYK2 (JH2domain-pseudokinase) (Homo sapiens (Human), UniProt P29597). As to the kind of experiment: TYK2 JH2 Domain Binding Assay (KINOMEscan). An outline of the steps:
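The construct was human TYK2 G556–D888 fused to the NFkB DNA-binding domain and expressed in HEK293 cells; unpurified extract was incubated with compound and liganded beads for 1 hour at room temperature.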

In the next test the target is Tyk2 kinase domain (DH1) (Homo sapiens (Human), UniProt P29597). In words: Tyk2 Radioactive Kinase Assay. In kind it is biochemical. The conditions noted are these: read-out: Tyk2 JH1% Inhibition @ 10 μM. An outline of the steps:
(§1)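 Values are single-concentration percent inhibition figures. They were obtained with 10 μM compound in a radioactivity-based kinase assay run separately on each enzyme.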

The target of the next test is JAK2 kinase domain (JH1) (Homo sapiens (Human), UniProt O60674). As to the kind of experiment: JAK2 Radioactive Kinase Assay. To be noted: read-out: JAK2 JH1% Inhibition @ 10 μM. In kind it is biochemical. Put shortly:
as §1

The target in test [2] is Tyk2/JAK2 (heterodimeric complex) (Homo sapiens (Human), UniProt P29597). As to the kind of experiment: IL-12 Induced pSTAT4 in Human PBMC. The class given is cell-based. To be noted: 1.7 ng/mL IL-12. The source says: The IL-12 Induced pSTAT4 assay evaluates the inhibition of IL-12 induced STAT4 phophorylation mediated by Tyk2/JAK2 (heterodimeric complex).
Chain of Tyk2/JAK2 (heterodimeric complex) (P29597 whole entry, other chains not shown): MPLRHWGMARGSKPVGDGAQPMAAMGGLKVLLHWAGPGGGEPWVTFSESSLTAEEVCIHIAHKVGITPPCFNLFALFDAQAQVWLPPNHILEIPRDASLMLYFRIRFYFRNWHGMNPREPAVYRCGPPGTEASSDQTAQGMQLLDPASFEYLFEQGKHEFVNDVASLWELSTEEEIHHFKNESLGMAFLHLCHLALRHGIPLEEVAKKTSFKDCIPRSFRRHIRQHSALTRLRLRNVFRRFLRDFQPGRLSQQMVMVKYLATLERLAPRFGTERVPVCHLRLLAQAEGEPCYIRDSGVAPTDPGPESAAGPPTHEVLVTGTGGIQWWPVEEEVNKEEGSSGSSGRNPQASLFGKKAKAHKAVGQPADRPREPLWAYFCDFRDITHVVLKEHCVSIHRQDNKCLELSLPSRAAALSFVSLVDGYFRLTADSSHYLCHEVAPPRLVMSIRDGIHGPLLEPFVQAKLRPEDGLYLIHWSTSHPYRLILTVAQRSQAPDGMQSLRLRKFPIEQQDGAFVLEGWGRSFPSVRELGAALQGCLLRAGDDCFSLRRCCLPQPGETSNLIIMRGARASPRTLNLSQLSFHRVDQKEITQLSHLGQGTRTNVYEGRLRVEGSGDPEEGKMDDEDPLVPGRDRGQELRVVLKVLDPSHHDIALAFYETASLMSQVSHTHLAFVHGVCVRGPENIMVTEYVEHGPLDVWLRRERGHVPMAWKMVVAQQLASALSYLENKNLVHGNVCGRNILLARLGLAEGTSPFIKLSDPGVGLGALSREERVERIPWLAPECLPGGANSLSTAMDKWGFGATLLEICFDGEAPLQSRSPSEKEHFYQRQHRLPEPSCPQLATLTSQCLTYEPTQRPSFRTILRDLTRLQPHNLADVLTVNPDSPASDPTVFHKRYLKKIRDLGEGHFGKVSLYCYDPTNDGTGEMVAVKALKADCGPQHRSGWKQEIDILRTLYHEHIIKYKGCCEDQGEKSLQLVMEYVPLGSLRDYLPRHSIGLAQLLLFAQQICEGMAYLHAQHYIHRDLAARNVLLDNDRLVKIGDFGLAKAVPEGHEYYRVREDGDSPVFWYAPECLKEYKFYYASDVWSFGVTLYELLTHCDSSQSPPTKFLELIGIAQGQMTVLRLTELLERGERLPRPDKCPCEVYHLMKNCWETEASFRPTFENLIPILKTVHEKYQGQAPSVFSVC
Test [3] deals with JAK2/JAK2 homdimeric complex (Homo sapiens (Human), UniProt O60674). As to the kind of experiment: GM-CSF Induced pSTAT5 in Human PBMC. To be noted: GM-CSF 5 ng/mL for 20 minutes, pSTAT5 by MSD, read-out: PBMC_GMCSF_pSTAT5 IC50. The class given is cell-based.
Chain of JAK2/JAK2 homdimeric complex (O60674 whole entry): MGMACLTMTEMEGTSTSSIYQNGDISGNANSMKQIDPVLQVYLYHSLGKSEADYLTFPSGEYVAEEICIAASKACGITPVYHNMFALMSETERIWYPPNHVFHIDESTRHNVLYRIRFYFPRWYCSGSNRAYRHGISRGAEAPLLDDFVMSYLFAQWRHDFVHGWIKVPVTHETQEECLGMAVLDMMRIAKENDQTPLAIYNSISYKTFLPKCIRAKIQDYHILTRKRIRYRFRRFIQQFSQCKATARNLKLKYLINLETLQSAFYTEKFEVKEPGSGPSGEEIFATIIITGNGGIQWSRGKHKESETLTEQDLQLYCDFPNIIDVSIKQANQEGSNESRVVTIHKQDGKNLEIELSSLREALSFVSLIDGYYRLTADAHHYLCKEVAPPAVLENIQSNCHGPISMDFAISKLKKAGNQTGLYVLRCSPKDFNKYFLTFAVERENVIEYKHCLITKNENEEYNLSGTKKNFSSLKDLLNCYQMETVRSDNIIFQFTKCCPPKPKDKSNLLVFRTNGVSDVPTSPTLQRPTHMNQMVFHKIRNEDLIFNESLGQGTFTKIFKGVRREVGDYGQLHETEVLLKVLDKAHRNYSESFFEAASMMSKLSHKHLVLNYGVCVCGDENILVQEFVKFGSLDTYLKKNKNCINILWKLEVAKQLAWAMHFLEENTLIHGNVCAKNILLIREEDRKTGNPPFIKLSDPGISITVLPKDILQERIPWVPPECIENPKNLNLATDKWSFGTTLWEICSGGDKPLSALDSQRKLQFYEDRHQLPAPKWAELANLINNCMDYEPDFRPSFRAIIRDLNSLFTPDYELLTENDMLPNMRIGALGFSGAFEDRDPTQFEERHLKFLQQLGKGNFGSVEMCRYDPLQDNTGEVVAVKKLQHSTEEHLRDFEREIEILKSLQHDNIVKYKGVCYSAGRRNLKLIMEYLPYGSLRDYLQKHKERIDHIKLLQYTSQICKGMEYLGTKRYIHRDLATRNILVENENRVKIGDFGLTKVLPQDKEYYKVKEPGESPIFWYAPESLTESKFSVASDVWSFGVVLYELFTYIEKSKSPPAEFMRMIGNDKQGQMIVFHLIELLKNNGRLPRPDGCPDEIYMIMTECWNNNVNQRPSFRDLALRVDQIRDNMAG
Chain of JAK2/JAK2 homdimeric complex (P32927 17-897 partner): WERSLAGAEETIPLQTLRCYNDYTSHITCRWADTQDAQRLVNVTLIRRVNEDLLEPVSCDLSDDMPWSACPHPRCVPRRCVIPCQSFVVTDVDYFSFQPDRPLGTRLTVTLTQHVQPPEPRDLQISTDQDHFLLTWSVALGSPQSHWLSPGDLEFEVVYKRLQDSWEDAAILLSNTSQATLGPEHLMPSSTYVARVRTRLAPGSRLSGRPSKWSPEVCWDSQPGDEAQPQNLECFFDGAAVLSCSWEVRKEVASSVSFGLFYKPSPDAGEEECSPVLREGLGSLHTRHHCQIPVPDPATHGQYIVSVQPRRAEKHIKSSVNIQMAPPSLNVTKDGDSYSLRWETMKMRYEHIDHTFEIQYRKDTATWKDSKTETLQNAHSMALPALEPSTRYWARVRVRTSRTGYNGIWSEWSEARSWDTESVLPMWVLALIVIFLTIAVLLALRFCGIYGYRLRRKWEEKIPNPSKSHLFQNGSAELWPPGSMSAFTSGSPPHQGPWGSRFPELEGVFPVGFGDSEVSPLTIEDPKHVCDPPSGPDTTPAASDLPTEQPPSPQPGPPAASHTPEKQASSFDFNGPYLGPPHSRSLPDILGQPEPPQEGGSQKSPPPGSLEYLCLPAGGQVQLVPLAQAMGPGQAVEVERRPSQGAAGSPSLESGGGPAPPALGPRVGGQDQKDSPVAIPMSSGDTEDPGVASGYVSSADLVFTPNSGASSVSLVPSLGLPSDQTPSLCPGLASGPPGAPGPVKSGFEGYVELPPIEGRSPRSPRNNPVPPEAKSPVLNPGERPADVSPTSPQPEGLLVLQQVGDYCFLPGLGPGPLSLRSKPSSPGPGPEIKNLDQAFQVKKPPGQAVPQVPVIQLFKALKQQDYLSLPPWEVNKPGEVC

Chain of JAK2 kinase domain (JH1) (O60674 849-1124): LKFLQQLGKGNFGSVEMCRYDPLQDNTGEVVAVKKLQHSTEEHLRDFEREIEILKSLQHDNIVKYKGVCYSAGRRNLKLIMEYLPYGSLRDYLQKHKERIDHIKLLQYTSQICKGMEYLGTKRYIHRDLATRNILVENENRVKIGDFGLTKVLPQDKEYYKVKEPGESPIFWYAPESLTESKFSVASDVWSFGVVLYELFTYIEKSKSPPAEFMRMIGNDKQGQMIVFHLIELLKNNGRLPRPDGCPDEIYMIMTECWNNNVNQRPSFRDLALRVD
Chain of human TYK2 (JH2domain-pseudokinase) (P29597 556-888): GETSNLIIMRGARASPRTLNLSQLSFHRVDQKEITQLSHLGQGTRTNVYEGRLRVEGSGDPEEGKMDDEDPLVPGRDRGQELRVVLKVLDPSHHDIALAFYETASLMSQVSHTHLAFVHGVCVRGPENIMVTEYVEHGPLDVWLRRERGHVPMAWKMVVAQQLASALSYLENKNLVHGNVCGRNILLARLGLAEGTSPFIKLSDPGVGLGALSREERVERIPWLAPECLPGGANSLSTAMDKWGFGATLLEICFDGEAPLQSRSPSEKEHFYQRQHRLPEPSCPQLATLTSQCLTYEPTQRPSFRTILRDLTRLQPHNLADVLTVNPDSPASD
Chain of Tyk2 kinase domain (DH1) (P29597 897-1176): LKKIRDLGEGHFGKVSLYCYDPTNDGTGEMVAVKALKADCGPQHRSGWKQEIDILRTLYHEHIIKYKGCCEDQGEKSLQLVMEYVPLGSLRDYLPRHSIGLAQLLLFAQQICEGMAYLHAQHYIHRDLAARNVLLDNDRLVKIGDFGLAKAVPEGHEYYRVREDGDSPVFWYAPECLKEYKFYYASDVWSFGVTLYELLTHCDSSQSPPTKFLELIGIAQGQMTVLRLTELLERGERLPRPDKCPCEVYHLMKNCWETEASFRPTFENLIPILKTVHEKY

Take `CNc1cc(Nc2cccn(-c3ccc(F)cc3)c2=O)nc2c(C(=O)N[C@H]3C[C@H]3F)cnn12` [I-132]: the Kd in test [1] is < 0.2 nM. Also, the inhibition at 10 µM at Tyk2 kinase domain (DH1) (compound at 10 μM, ATP 10 μM) was < 50%; on JAK2 kinase domain (JH1) (compound at 10 μM, ATP 10 μM), < 50%. The results for the IC50 in test [2] and in test [3] were < 100 nM and > 2500 nM, respectively.
For the molecule `CNc1cc(Nc2cccc(N3CCC34COC4)n2)nc2c(C(=O)N[C@H]3C[C@H]3F)cnn12` [I-709], the Kd in test [1] is < 0.2 nM. In addition, the inhibition at 10 µM on Tyk2 kinase domain (DH1) (compound at 10 μM, ATP 10 μM) is < 50%; at JAK2 kinase domain (JH1) (compound at 10 μM, ATP 10 μM) it was < 50%. Further, the IC50 in test [2] was < 100 nM; in test [3], > 50000 nM.
For `CNc1cc(Nc2cccnc2OC2CC2)nc2c(C(=O)NCC(C)CO)cnn12` (stereo not drawn) [I-435], the Kd in test [1] was < 0.2 nM. Moreover, the inhibition at 10 µM on Tyk2 kinase domain (DH1) (compound at 10 μM, ATP 10 μM) was < 50%; on JAK2 kinase domain (JH1) (compound at 10 μM, ATP 10 μM), < 50%. Besides, the IC50 in test [2] is 100 to 500 nM; in test [3] it was > 50000 nM.
Consider `CNc1cc(Nc2cccn(-c3cn(C)nc3F)c2=O)nc2c(C(=O)N[C@H]3C[C@H]3F)cnn12` [I-607], for which the dissociation constant (Kd) in test [1] was < 0.2 nM. The inhibition at 10 µM at Tyk2 kinase domain (DH1) (compound at 10 μM, ATP 10 μM) was < 50%; at JAK2 kinase domain (JH1) (compound at 10 μM, ATP 10 μM) it was < 50%. The results for the concentration for half-maximal inhibition (IC50) in test [2] and in test [3] were < 100 nM and > 50000 nM, respectively.
As to `CNc1cc(Nc2cccnc2OC2CCC2)nc2c(C(=O)N[C@H]3C[C@H]3F)cnn12` [I-170], the dissociation constant Kd in test [1] is < 0.2 nM. In addition, the inhibition at 10 µM was < 50% at Tyk2 kinase domain (DH1) (compound at 10 μM, ATP 10 μM) and < 50% on JAK2 kinase domain (JH1) (compound at 10 μM, ATP 10 μM). Besides, the half-maximal inhibitory concentration (IC50) is < 100 nM in test [2] and > 50000 nM in test [3].
As for `[2H]C([2H])([2H])Oc1ncc(F)cc1Nc1cc(NC)n2ncc(C(=O)NC3CC3)c2n1` [I-284], the dissociation constant Kd in test [1] is < 0.2 nM. Further, the inhibition at 10 µM was < 50% at Tyk2 kinase domain (DH1) (compound at 10 μM, ATP 10 μM) and < 50% at JAK2 kinase domain (JH1) (compound at 10 μM, ATP 10 μM). Further, the 50% inhibitory concentration (IC50) in test [2] is < 100 nM; in test [3], > 12500 nM.
For `CNc1cc(Nc2cccn(C3CCOCC3)c2=O)nc2c(C(=O)NC3CC3)cnn12` [I-329], the dissociation constant Kd in test [1] was < 0.2 nM. Besides, the inhibition at 10 µM on Tyk2 kinase domain (DH1) (compound at 10 μM, ATP 10 μM) is < 50%; at JAK2 kinase domain (JH1) (compound at 10 μM, ATP 10 μM), < 50%. In addition, the 50% inhibitory concentration (IC50) in test [2] was < 100 nM; in test [3], > 2500 nM.
With `CNc1cc(Nc2cccn(-c3cc(C)on3)c2=O)nc2c(C(=O)NC3CC3)cnn12` [I-162], the Kd in test [1] was < 0.2 nM. Besides, the inhibition at 10 µM on Tyk2 kinase domain (DH1) (compound at 10 μM, ATP 10 μM) is < 50%; on JAK2 kinase domain (JH1) (compound at 10 μM, ATP 10 μM) it was < 50%. Besides, the concentration for half-maximal inhibition (IC50) in test [2] is < 100 nM; in test [3], > 2500 nM.
`CNc1cc(Nc2cccn([C@@H]3CCC[C@H](OC)C3)c2=O)nc2c(C(=O)NCC(C)(C)CO)cnn12` [I-951]: the dissociation constant (Kd) in test [1] is < 0.2 nM. The inhibition at 10 µM on Tyk2 kinase domain (DH1) (10 μM compound, 10 μM ATP) is < 50%; on JAK2 kinase domain (JH1) (10 μM compound, 10 μM ATP), < 50%. Also, the figures for the half-inhibitory concentration (IC50) in test [2] and in test [3] were < 100 nM and > 50000 nM, respectively.
Consider `CNc1cc(Nc2cccnc2OC)nc2c(C(=O)N[C@@H]3CCC[C@H]3O)cnn12` [I-423, N-((1R,2R)-2-hydroxycyclopentyl)-5-((2-methoxypyridin-3-yl)amino)-7-(methylamino)pyrazolo[1,5-a]pyrimidine-3-carboxamide], for which the Kd in test [1] is < 0.2 nM. For the same molecule, the inhibition at 10 µM at Tyk2 kinase domain (DH1) (compound at 10 μM, ATP 10 μM) was < 50%; on JAK2 kinase domain (JH1) (compound at 10 μM, ATP 10 μM), < 50%. For the same molecule, the IC50 in test [2] was < 100 nM; in test [3] it was > 50000 nM.
For `CNc1cc(Nc2cccn(-c3cccc(C(C)(C)O)n3)c2=O)nc2c(C(=O)NC3CCC3)cnn12` [I-156], the Kd in test [1] is < 0.2 nM. Also, the inhibition at 10 µM is < 50% at Tyk2 kinase domain (DH1) (compound at 10 μM, ATP 10 μM) and < 50% on JAK2 kinase domain (JH1) (compound at 10 μM, ATP 10 μM). For the same molecule, the half-maximal inhibitory concentration (IC50) in test [2] is < 100 nM; in test [3] it was > 12500 nM.
On to `CNc1cc(Nc2cccnc2OCCOC)nc2c(C(=O)NC3CCC3)cnn12` [I-219], for which the equilibrium dissociation constant (Kd) in test [1] was < 0.2 nM. In addition, the inhibition at 10 µM is < 50% on Tyk2 kinase domain (DH1) (compound at 10 μM, ATP 10 μM) and < 50% on JAK2 kinase domain (JH1) (compound at 10 μM, ATP 10 μM). Besides, the IC50 in test [2] was < 100 nM; in test [3], > 12500 nM.
Regarding `[2H]C([2H])([2H])Oc1ncc(C)cc1Nc1cc(NC)n2ncc(C(=O)N[C@H]3C[C@H]3F)c2n1` [I-259], the Kd in test [1] is < 0.2 nM. The inhibition at 10 µM on Tyk2 kinase domain (DH1) (compound at 10 μM, ATP 10 μM) is < 50%; at JAK2 kinase domain (JH1) (compound at 10 μM, ATP 10 μM) it was < 50%. The IC50 in test [2] was < 100 nM; in test [3] it was > 12500 nM.
As for `CNc1cc(Nc2cccc([C@@H]3CCCOC3)n2)nc2c(C(=O)N[C@@H]3CC[C@H]3O)cnn12` [I-665], in test [1], the Kd was < 0.2 nM. Further, the inhibition at 10 µM is < 50% on Tyk2 kinase domain (DH1) (compound at 10 μM, ATP 10 μM) and 50 to 70% at JAK2 kinase domain (JH1) (compound at 10 μM, ATP 10 μM). Also, the values for the IC50 in test [2] and in test [3] were < 100 nM and > 2500 nM, respectively.
For `CNc1cc(Nc2cccn(-c3nc(C)co3)c2=O)nc2c(C(=O)N[C@@H]3CC[C@H]3O)cnn12` (stereo in doubt) [I-658, N-((1R,2R)-2-hydroxycyclobutyl)-7-(methylamino)-5-((1-(4-methyloxazol-2-yl)-2-oxo-1,2-dihydropyridin-3-yl)amino)pyrazolo[1,5-a]pyrimidine-3-carboxamide] the same measures were < 0.2 nM, < 50%, < 50%, < 100 nM and > 50000 nM.
For `CNc1cc(Nc2cccnc2OC(F)F)nc2c(C(=O)N[C@H]3C[C@H]3F)cnn12` [I-153] the same measures were < 0.2 nM, < 50%, 50 to 70%, < 100 nM and > 12500 nM.
The like results for `CNc1cc(Nc2cccn([C@@H]3CCCOC3)c2=O)nc2c(C(=O)N[C@H]3CC[C@H]3O)cnn12` [I-751] were, in that order, < 0.2 nM, < 50%, < 50%, < 100 nM and > 12500 nM.
For the molecule `CNc1cc(-c2cn(C3CC3)c3ncccc23)nc2c(C(=O)N[C@@H]3C[C@@H]3F)cnn12` [I-961, 5-(1-cyclopropyl-1H-pyrrolo[2,3-b]pyridine-3-yl)-N-((1R,2S)-2-fluorocyclopropyl)-7-(methylamino)pyrazolo[1,5-a]pyrimidine-3-carboxamide], in test [1], the Kd is < 0.2 nM. The inhibition at 10 µM on Tyk2 kinase domain (DH1) (10 μM compound, 10 μM ATP) was < 50%; on JAK2 kinase domain (JH1) (10 μM compound, 10 μM ATP), < 50%. Also, the values for the IC50 in test [2] and in test [3] were < 100 nM and > 50000 nM, respectively.
On to `CNc1cc(Nc2cc(Cl)cn(-c3ccc(C)nn3)c2=O)nc2c(C(=O)N[C@H]3C[C@H]3F)cnn12` [I-164], for which, in test [1], the equilibrium dissociation constant (Kd) is < 0.2 nM. Besides, the inhibition at 10 µM at Tyk2 kinase domain (DH1) (compound at 10 μM, ATP 10 μM) was < 50%; at JAK2 kinase domain (JH1) (compound at 10 μM, ATP 10 μM) it was < 50%. Moreover, the results for the concentration for half-maximal inhibition (IC50) in test [2] and in test [3] were < 100 nM and > 50000 nM, respectively.
Regarding `CNc1cc(Nc2cccn(C3CCCN(CCF)C3)c2=O)nc2c(C(=O)N[C@@H]3C[C@@H]3F)cnn12` (stereo partly drawn) [I-849], the dissociation constant (Kd) in test [1] is < 0.2 nM. The inhibition at 10 µM on Tyk2 kinase domain (DH1) (10 μM compound, 10 μM ATP) is < 50%; on JAK2 kinase domain (JH1) (10 μM compound, 10 μM ATP) it was < 50%. Besides, the concentration for half-maximal inhibition (IC50) in test [2] is 100 to 500 nM; in test [3] it was > 50000 nM.
For the molecule `CNc1cc(Nc2cc(Cl)cn(-c3ccn(C4CC4)n3)c2=O)nc2c(C(=O)NC3CC3)cnn12` [I-331], the equilibrium dissociation constant (Kd) in test [1] was < 0.2 nM. Also, the inhibition at 10 µM at Tyk2 kinase domain (DH1) (compound at 10 μM, ATP 10 μM) was < 50%; at JAK2 kinase domain (JH1) (compound at 10 μM, ATP 10 μM), < 50%. The concentration for half-maximal inhibition (IC50) in test [2] was < 100 nM; in test [3] it was > 12500 nM.
